Structures are written as SMILES. Where only a bound is given, the exact number is not on record here.

For one assay, the target named is T1, human recombinant soluble guanylate cyclase enzyme α1β1 (Homo sapiens, UniProt Q02108+Q02153).
T1 construct: purchased Enzo Life Sciences ALX-201-177
T1 sequence (Q02153 1-619): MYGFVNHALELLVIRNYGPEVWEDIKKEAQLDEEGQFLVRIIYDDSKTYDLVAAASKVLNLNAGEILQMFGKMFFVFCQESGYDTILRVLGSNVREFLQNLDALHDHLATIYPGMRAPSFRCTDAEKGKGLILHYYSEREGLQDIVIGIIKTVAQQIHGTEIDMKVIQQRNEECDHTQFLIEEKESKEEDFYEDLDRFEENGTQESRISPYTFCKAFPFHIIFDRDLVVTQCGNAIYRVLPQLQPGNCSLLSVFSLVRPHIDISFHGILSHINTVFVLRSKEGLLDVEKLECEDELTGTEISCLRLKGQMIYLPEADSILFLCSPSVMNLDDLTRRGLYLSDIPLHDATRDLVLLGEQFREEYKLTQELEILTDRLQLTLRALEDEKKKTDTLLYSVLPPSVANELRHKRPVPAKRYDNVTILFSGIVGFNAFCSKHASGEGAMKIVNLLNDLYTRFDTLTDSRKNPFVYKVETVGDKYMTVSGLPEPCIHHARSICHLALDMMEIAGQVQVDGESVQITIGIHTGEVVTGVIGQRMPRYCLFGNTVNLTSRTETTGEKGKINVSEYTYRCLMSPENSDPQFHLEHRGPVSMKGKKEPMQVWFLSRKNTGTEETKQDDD
T1 sequence (Q02108 1-690): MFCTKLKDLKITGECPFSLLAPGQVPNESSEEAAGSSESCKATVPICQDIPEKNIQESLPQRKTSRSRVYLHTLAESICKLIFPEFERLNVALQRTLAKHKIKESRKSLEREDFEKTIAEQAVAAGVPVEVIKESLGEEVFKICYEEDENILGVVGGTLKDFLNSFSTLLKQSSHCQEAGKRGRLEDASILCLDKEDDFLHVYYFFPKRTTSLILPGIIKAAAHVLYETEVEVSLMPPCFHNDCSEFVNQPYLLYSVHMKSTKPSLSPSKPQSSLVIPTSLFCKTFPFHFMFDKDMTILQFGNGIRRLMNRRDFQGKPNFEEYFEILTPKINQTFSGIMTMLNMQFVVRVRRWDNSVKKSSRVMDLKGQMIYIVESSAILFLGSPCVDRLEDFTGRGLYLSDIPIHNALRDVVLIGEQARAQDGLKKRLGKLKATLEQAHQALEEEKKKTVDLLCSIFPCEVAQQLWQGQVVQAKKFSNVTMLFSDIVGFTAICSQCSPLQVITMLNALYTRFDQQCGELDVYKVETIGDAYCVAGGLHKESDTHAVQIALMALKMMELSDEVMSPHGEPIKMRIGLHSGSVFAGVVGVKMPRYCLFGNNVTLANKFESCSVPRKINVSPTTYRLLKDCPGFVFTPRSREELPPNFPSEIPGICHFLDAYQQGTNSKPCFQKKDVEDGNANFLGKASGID
Put plainly: Purified human recombinant sGC α1β1 enzyme assay with DETA-NONOate, cGMP HTRF (Example 5). Type of assay: biochemical. To be noted: 30 uM DETA NONOate, 50% of maximal response of 30 uM Compound Y, read-out: sGC_Enz_HTRF_a1b1 EC50/IC50 Abs (Norm) (nM) Binned. The method, then:
Purified human recombinant soluble guanylate cyclase enzyme α1β1 (h sGC) obtained from Enzo Life Sciences (P/N: ALX-201-177) was used to evaluate the activity of test compounds. The assay reactions contained 0.1 M Tris (pH 8.0), 0.5 mg/mL BSA, 2 mM DTT, 4 mM MgCl2, 30 uM DETA NONOate (Enzo Life Science P/N: ALX-430-014), and 12.5 ng/ml human soluble guanylate cyclase enzyme. […] Guanosine 5′-triphosphate (Sigma-Aldrich P/N: G8877) was added to a final concentration of 300 μM and enzyme reactions were incubated (100 μL, 384-well plate format) at 37° C. for 20 minutes. The controls contained 3% DMSO (low control), or 30 uM of Compound Y (high control). After the 20 minute incubation, the reaction was stopped with the addition of 100 μL of ice cold 20% acetic acid.
cGMP concentrations in all samples were determined using the cGMP HTRF (Cisbio P/N: 62GM2PEC) assay per manufacturer's instructions. A cGMP standard curve was fit using a 4-parameter fit (log(inhibitor) vs. response variable slope) using GraphPad Prism Software v.6. Samples were diluted appropriately to ensure that values fell within the linear range of the standard curve.
Data were fit using a 4-parameter fit (log(agonist) vs. response variable slope) using GraphPad Prism Software v.6.
In general terms: In TR-FRET formats the signal depends on donor and acceptor labels being close together.
Take `O=C(O)COc1nc(-c2cc(-c3ccon3)n(Cc3ccccc3F)n2)ncc1F` [Compound I-6]: the EC50 is at least 5000 nM.

For another assay, the system named is lambs with acute pulmonary hypertension.
Assay: not given
To be noted: after intravenous ODQ; cited from earlier work.
As to `O=C(O)CCCCN(CCc1ccccc1OCc1ccc(CCc2ccccc2)cc1)Cc1ccc(C(=O)O)cc1` [BAY 58-2667], the “pulmonary vasodilation and transpulmonary cGMP release after ODQ treatment” value is “greatly enhanced”.

The assay is the same for the next values; noted with them: combination with inhaled nitric oxide; cited from earlier work.
In the case of `Nc1nc(-c2nn(Cc3ccccc3F)c3ncccc23)nc(N)c1N1CCOCC1` [BAY 41-8543], the “pulmonary vasodilation induced by iNO after inhaling microparticles” value was “augmented”.

Staying with this assay, now noted: inhaled microparticles, awake lambs, U-46619 infusion; cited from earlier work.
As to `Nc1nc(-c2nn(Cc3ccccc3F)c3ncccc23)ncc1C1CC1` [BAY 41-2272], the “effect on mean arterial pressure” value is “without significant effect on mean arterial pressure”, the pulmonary vasodilation result is reported as “dose dependent pulmonary vasodilation” and the “transpulmonary cGMP release” value is listed as “increased transpulmonary cGMP release”.
On to `O=C(O)CCCCN(CCc1ccccc1OCc1ccc(CCc2ccccc2)cc1)Cc1ccc(C(=O)O)cc1` [BAY 58-2667], for which the “effect on mean arterial pressure” value is “without significant effect on mean arterial pressure”, the pulmonary vasodilation entry is given as “dose dependent pulmonary vasodilation” and the “transpulmonary cGMP release” value is recorded as “increased transpulmonary cGMP release”.
On to `Nc1nc(-c2nn(Cc3ccccc3F)c3ncccc23)nc(N)c1N1CCOCC1` [BAY 41-8543], for which the “effect on mean arterial pressure” value was “without significant effect on mean arterial pressure”, the pulmonary vasodilation entry is listed as “dose dependent pulmonary vasodilation” and the “transpulmonary cGMP release” value was “increased transpulmonary cGMP release”.

The same assay, now with this note: inhaled microparticles, awake lambs; cited from earlier work.
Consider `O=C(O)CCCCN(CCc1ccccc1OCc1ccc(CCc2ccccc2)cc1)Cc1ccc(C(=O)O)cc1` [BAY 58-2667], for which the systemic arterial oxygenation result is “increased systemic arterial oxygenation”.
On to `Nc1nc(-c2nn(Cc3ccccc3F)c3ncccc23)nc(N)c1N1CCOCC1` [BAY 41-8543], for which the systemic arterial oxygenation result is on record as “increased systemic arterial oxygenation”.

The target of another assay is T2, sGC enzyme (Homo sapiens, UniProt Q02108+Q02153).
T2 construct: host or cells: HEK293 cells stably expressing GloSensor 40F cGMP biosensor
T2 sequence (Q02153 1-619): T1 sequence (Q02153 1-619)
T2 sequence (Q02108 1-690): T1 sequence (Q02108 1-690)
The assay can be described thus: cGMP GloSensor cell-based assay, 384-well format (Example 2C). To be noted: read-out: sGC_HEK_GloSensor EC50/IC50 Abs (Norm) (nM) Binned. The source says: Human embryonic kidney cells (HEK293) cells expressing GloSensor™ 40F cGMP (Part No: CS182801, Promega) were used to evaluate the activity of test compounds. The luminescent biosensors (engineered luciferase) that were incorporated into these cells detect cGMP formed by the compounds stimulating the sGC enzyme and emit luminescence.
cGMP GloSensor cells were maintained in Dulbecco's Modification of Eagle's Medium (DMEM) supplemented with fetal bovine serum (FBS) (10% final) and hygromycine (200 ug/ml). The day before assay, cells were plated in DMEM with 10% FBS in a 50 μL volume at a density of 1.5×10^4 cells/well in a poly-D-lysine coated 384-well flat white-bottom plate (Corning Cat No 35661). Cells were incubated overnight at 37° C. in a humidified chamber with 5% CO2. The next day, medium was removed and cells were replaced with 40 ul/well of GloSensor™, 2 mM (Promega Cat No E1291). Cells were treated for 90 minutes at 25° C. to allow the substrate to equilibrate in the cells. Test compounds and Diethylenetriamine NONOate (DETA-NONOate) was diluted to 3 mM (20×) in serum-free CO2 independent medium and serally diluted at 4× dilutions to create 5× dose curve from which 10 ul was added to the wells (x μM concentration for test compound solution and 10 μM concentration for DETA-NONOate solution; wherein x is one of the following final concentrations).
For the kinetics studies, luminescense was measured right away for 0.2 sec per well with Envision (Perkin Elmer model No). For endpoint SAR screening, data were collected after 55 min incubation at room temperature.
Data analysis was carried out as indicated above in Example 2C.
`O=S(=O)(c1ccccc1)c1nc(-c2cc(-c3ccon3)n(Cc3ccccc3F)n2)ncc1F` [Compound I-38]: the EC50 was at most 100 nM.
For `Fc1ccccc1Cn1nc(-c2ncc(F)c(Sc3ccccc3)n2)cc1-c1ccon1` [Compound I-37], the EC50 was in the range of 100 to 1000 nM.
Still for that read-out and setting: to `OCCSc1nc(-c2cc(-c3ccon3)n(Cc3ccccc3F)n2)ncc1F` [Compound I-34] belongs over 1000 nM.
With `OCCSc1cnc(-c2cc(-c3ccon3)n(Cc3ccccc3F)n2)nc1SCCO` [Compound I-35], the EC50 is over 1000 nM.

The next assay deals with T3, soluble guanylate cyclase (sGC) (Homo sapiens, UniProt Q02108+Q02153).
T3 construct: endogenously expressing soluble guanylate cyclase (sGC); endogenous in cells; host or cells: HEK293
T3 sequence (Q02153 1-619): T1 sequence (Q02153 1-619)
T3 sequence (Q02108 1-690): T1 sequence (Q02108 1-690)
The assay can be described thus: sGC-HEK-cGMP assay, LC/MS detection, with SNP incubation (Example 2A). The format is cell-based. The settings on record: HEK293 cells, in the presence of 10 μM SNP; constrained fit; read-out: sGC_HEK_LCMS cEC50 (nM) Binned (constrained). On the procedure:
Human embryonic kidney cells (HEK293), endogenously expressing soluble guanylate cyclase (sGC), were used to evaluate the activity of test compounds. Compounds stimulating the sGC receptor should cause an increase in the intracellular concentration of cGMP. HEK 293 cells were seeded in Dulbecco's Modification of Eagle's Medium supplemented with fetal bovine serum (10% final) and L-glutamine (2 mM final) in a 200 μL volume at a density of 1×10^5 cells/well in a poly-D-lysine coated 96 well flat bottom plate and grown overnight at 37° C. Medium was aspirated and cells were washed with 1× Hank's Buffered Saline Salt Solution (200 μL). Cells were then incubated for 15 minutes at 37° C. with 0.5 mM 3-isobutyl-1-methylxanthine (200 μL). Test article and sodium nitroprusside were then added to the assay mixture (2 μL each) and incubated at 37° C. for 10 minutes. After the 10 minute incubation, the assay mixture was aspirated and 0.1M HCl (200 μL) was added to the cells. The plate was incubated at 4° C. for 30 minutes in the 0.1M HCl to stop the reaction and lysed the cells. The plates were then centrifuged at 1,200 g for 5 minutes at room temperature. Supernatants were collected and transferred to a new flat bottom 96 well plate for analysis. Vehicle controls were carried out using DMSO (1%). A known sGC stimulator, BAY 41-2272, was used as the positive control. Samples were diluted with an equal volume of 1 M Ammonium Acetate (pH 7) to neutralize samples for better chromatography. A 2× cGMP standard curve was prepared in 0.1 M HCl and then diluted with an equal volume of 1 M Ammonium Acetate, with the following final concentrations in nM: 1024, 512, 256, 128, 64, 32, 16, 8, 4, 2, 1. cGMP concentrations were determined from each sample using the LC/MS conditions (Table 2 below) and calculated standard curve. EC50 values were calculated from concentration-response curves generated with GraphPad Prism Software.
For `O=C(COc1nc(-c2cc(-c3ccon3)n(Cc3ccccc3F)n2)ncc1F)N1CCOCC1` [Compound I-11], the EC50 is 1000 to 5000 nM.
Still for that read-out and setting: to `Fc1ccccc1Cn1nc(-c2ncc(F)c(OC3CCNC3)n2)cc1-c1ccon1` (centres unmarked) [Compound I-5] belongs 1000 to 5000 nM; to `CS(=O)(=O)CCCOc1nc(-c2cc(-c3ccon3)n(Cc3ccccc3F)n2)ncc1F` [Compound I-18], 1000 to 5000 nM.

Staying with this assay, now noted: HEK293 cells, in the presence of 10 μM SNP; top of concentration-response curve not fitted to 100%; read-out: sGC_HEK_LCMS uEC50 (nM) Binned (unconstrained).
Turning to `Fc1ccccc1Cn1nc(-c2ncc(F)c(OC3CNC3)n2)cc1-c1ccon1` [Compound I-14], the EC50 fell in the range of 1000 to 5000 nM.
Still for that read-out and setting: to `CS(=O)(=O)N1CCCC(Oc2nc(-c3cc(-c4ccon4)n(Cc4ccccc4F)n3)ncc2F)C1` (centres unmarked) [Compound I-21] belongs 1000 to 5000 nM; to `Fc1ccccc1Cn1nc(-c2ncc(F)c(OC3CCNCC3)n2)cc1-c1ccon1` [Compound I-13], at least 5000 nM.
The same measure, in the same setting: in the case of `O=C(O)c1ccccc1C(=O)Cc1nc(-c2cc(-c3ccon3)n(Cc3ccccc3F)n2)ncc1F` [Compound I-27] it was 1000 to 5000 nM.
Same read-out and setting: in the case of `COC(=O)COc1nc(-c2cc(-c3ccon3)n(Cc3ccccc3F)n2)ncc1F` [Compound I-7] it was 1000 to 5000 nM; in that of `O=C1O/C(=C\c2nc(-c3cc(-c4ccon4)n(Cc4ccccc4F)n3)ncc2F)c2ccccc21` [Compound I-26], 1000 to 5000 nM; in that of `CC(C)(C)OC(=O)N1CCCC1COc1nc(-c2cc(-c3ccon3)n(Cc3ccccc3F)n2)ncc1F` (centres unmarked) [Compound I-4], 1000 to 5000 nM.
For the compound `Fc1ccccc1Cn1nc(-c2ncc(F)c(OCC(F)(F)c3ccccn3)n2)cc1-c1ccon1` [Compound I-17], the EC50 is 100 to 1000 nM.
Same read-out and setting: to `COC(=O)C1(Oc2nc(-c3cc(-c4ccon4)n(Cc4ccccc4F)n3)ncc2F)CC1` [Compound I-8] belongs 1000 to 5000 nM.
For the compound `Fc1ccccc1Cn1nc(-c2ncc(F)c(OC3CCOC3)n2)cc1-c1ccon1` (centres unmarked) [Compound I-15], the EC50 was in the range of 100 to 1000 nM.
Same read-out and setting: in the case of `COC(=O)c1ccccc1C#Cc1nc(-c2cc(-c3ccon3)n(Cc3ccccc3F)n2)ncc1F` [Compound I-23] it was 1000 to 5000 nM.

The record behind these values is US20170298055A1, “sGC STIMULATORS” (IRONWOOD PHARMACEUTICALS, INC., priority 2014, published 2017).
